# Reference: US8552220B2, “Therapeutic agent for Alzheimer's disease” (Tokyo Institute of Technology, priority 2008, dated 2013)
row,melting point [°C],Structure (SMILES)
1,253 to 262,O=C(/C=C/c1cc(O)ccc1[N+](=O)[O-])CC(=O)/C=C/c1cc(O)ccc1[N+](=O)[O-]
2,245 to 250,CN(C)c1ccc(/C=C/C(=O)CC(=O)/C=C/c2ccc(N(C)C)cc2[N+](=O)[O-])c([N+](=O)[O-])c1
3,131 to 138,"O=C(/C=C/c1ccc(O)cc1)CC(=O)/C=C/c1ccc(O)cc1Cl [CU127, (1E,6E)-1-(2-chloro-4-hydroxyphenyl)-7-(4-hydroxyphenyl)hepta-1,6-diene-3,5-dione]"
4,185 to 192,"COc1cc(/C=C/C(=O)CC(=O)/C=C/c2ccc(O)cc2Cl)ccc1O [CU129, (1E,6E)-1-(2-chloro-4-hydroxyphenyl)-7-(4-hydroxy-3-methoxyphenyl)hepta-1,6-diene-3,5-dione]"
5,120 to 130,"COc1ccc(/C=C/C(=O)CC(=O)/C=C/c2ccc(O)cc2Cl)cc1O [CU130, (1E,6E)-1-(2-chloro-4-hydroxyphenyl)-7-(3-hydroxy-4-methoxyphenyl)hepta-1,6-diene-3,5-dione]"
6,147 to 152,"COc1cc(/C=C/C(=O)CC(=O)/C=C/c2cc(O)ccc2[N+](=O)[O-])ccc1O [CU132, (1E,6E)-1-(4-hydroxy-3-methoxyphenyl)-7-(5-hydroxy-2-nitrophenyl)hepta-1,6-diene-3,5-dione]"
7,107 to 111,"COc1ccc(/C=C/C(=O)CC(=O)/C=C/c2cc(O)ccc2[N+](=O)[O-])cc1O [CU133, (1E,6E)-1-(3-hydroxy-4-methoxyphenyl)-7-(5-hydroxy-2-nitrophenyl)hepta-1,6-diene-3,5-dione]"
8,217 to 222,"CN(C)c1ccc(/C=C/C(=O)CC(=O)/C=C/c2ccc(O)cc2)c([N+](=O)[O-])c1 [CU194, (1E,6E)-1-(4-dimethylamino-2-nitrophenyl)-7-(4-hydroxyphenyl)hepta-1,6-diene-3,5-dione]"
9,248 to 254,"O=C(/C=C/c1ccc(O)cc1Cl)CC(=O)/C=C/c1ccc(O)cc1Cl [CU362, (1E,6E)-1,7-bis(2-chloro-4-hydroxyphenyl)hepta-1,6-diene-3,5-dione]"
10,238 to 241,"CN(C)c1ccc(/C=C/C(=O)CC(=O)/C=C/c2ccc(N(C)C)cc2Cl)c(Cl)c1 [CU412, (1E,6E)-1,7-bis(2-chloro-4-dimethylaminophenyl)hepta-1,6-diene-3,5-dione]"
11,212 to 215,"CCN(CC)c1ccc(/C=C/C(=O)CC(=O)/C=C/c2ccc(O)cc2)c(OC(=O)c2ccccc2)c1 [CU425, (1E,6E)-1-(2-benzoyloxy-4-diethylaminophenyl)-7-(4-hydroxyphenyl)hepta-1,6-diene-3,5-dione]"
12,192 to 196,"CCN(CC)c1ccc(/C=C/C(=O)CC(=O)/C=C/c2ccc(N(CC)CC)cc2OC(=O)c2ccccc2)c(OC(=O)c2ccccc2)c1 [CU427, (1E,6E)-1,7-bis(2-benzoyloxy-4-diethylaminophenyl)hepta-1,6-diene-3,5-dione]"
13,241 to 250,"O=C(/C=C/c1ccc(O)cc1)CC(=O)/C=C/c1cc(Cl)ccc1[N+](=O)[O-] [CU465, (1E,6E)-1-(5-chloro-2-nitrophenyl)-7-(4-hydroxyphenyl)hepta-1,6-diene-3,5-dione]"
14,177 to 203,"O=C(/C=C/c1ccc(O)cc1)CC(=O)/C=C/c1cc(Br)ccc1F [CU466, (1E,6E)-1-(5-bromo-2-fluorophenyl)-7-(4-hydroxyphenyl)hepta-1,6-diene-3,5-dione]"
15,181 to 185,"O=C(/C=C/c1ccc(O)cc1)CC(=O)/C=C/c1ccccc1C(F)(F)F [CU467, (1E,6E)-1-(4-hydroxyphenyl)-7-(2-trifluoromethylphenyl)hepta-1,6-diene-3,5-dione]"
16,223 to 232,"O=C(/C=C/c1ccc(O)cc1)CC(=O)/C=C/c1ccc(Br)cc1F [CU471, (1E,6E)-1-(4-bromo-2-fluorophenyl)-7-(4-hydroxyphenyl)hepta-1,6-diene-3,5-dione]"
17,180 to 188,"O=C(/C=C/c1ccc(O)cc1)CC(=O)/C=C/c1ccccc1-c1ccccc1 [CU472, (1E,6E)-1-(biphenyl-2-yl)-7-(4-hydroxyphenyl)hepta-1,6-diene-3,5-dione]"
18,168 to 174,"O=C(/C=C/c1ccc(O)cc1)CC(=O)/C=C/c1cc(C(F)(F)F)ccc1F [CU473, (1E,6E)-1-(2-fluoro-5-trifluoromethylphenyl)-7-(4-hydroxyphenyl)hepta-1,6-diene-3,5-dione]"
19,145 to 150,"COC(=O)c1ccccc1/C=C/C(=O)CC(=O)/C=C/c1ccc(O)cc1 [CU478, (1E,6E)-1-(4-hydroxyphenyl)-7-[2-(methoxycarbonyl)phenyl]hepta-1,6-diene-3,5-dione]"
20,210 to 218,"CN(C)C(=O)c1ccccc1/C=C/C(=O)CC(=O)/C=C/c1ccc(O)cc1 [CU479, (1E,6E)-1-[2-(dimethylaminocarbonyl)phenyl]-7-(4-hydroxyphenyl)hepta-1,6-diene-3,5-dione]"
21,86 to 90,"CN(C)S(=O)(=O)c1ccccc1/C=C/C(=O)CC(=O)/C=C/c1ccc(O)cc1 [CU480, (1E,6E)-1-[2-(dimethylaminosulfonyl)phenyl]-7-(4-hydroxyphenyl)hepta-1,6-diene-3,5-dione]"
22,163 to 167,"CS(=O)(=O)Oc1ccccc1/C=C/C(=O)CC(=O)/C=C/c1ccc(O)cc1 [CU483, (1E,6E)-1-(4-hydroxyphenyl)-7-[2-(methylsulfonyloxy)phenyl]hepta-1,6-diene-3,5-dione]"
23,155 to 159,"O=C(/C=C/c1ccc(O)cc1)CC(=O)/C=C/c1ccccc1Br [CU486, (1E,6E)-1-(2-bromophenyl)-7-(4-hydroxyphenyl)hepta-1,6-diene-3,5-dione]"
24,180 to 183,"O=C(/C=C/c1ccc(O)cc1)CC(=O)/C=C/c1cc(OCc2c(F)cccc2Cl)ccc1[N+](=O)[O-] [CU492, (1E,6E)-1-[5-(2-chloro-6-fluorobenzyloxy)-2-nitrophenyl]-7-(4-hydroxyphenyl)hepta-1,6-diene-3,5-dione]"
25,157 to 161,"O=C(/C=C/c1ccc(O)cc1)CC(=O)/C=C/c1cc(OCc2ccc(Cl)cc2Cl)ccc1[N+](=O)[O-] [CU493, (1E,6E)-1-[5-(2,4-dichlorobenzyloxy)-2-nitrophenyl]-7-(4-hydroxyphenyl)hepta-1,6-diene-3,5-dione]"
26,136 to 142,"CN(C)c1ccc(/C=C/C(=O)CC(=O)CCc2ccc(O)cc2)c([N+](=O)[O-])c1 [CU523, (E)-1-(4-dimethylamino-2-nitrophenyl)-7-(4-hydroxyphenyl)hept-1-ene-3,5-dione]"
27,179 to 186,"O=C(/C=C/c1ccc(O)cc1)CC(=O)/C=C/c1cc(O)ccc1-c1ccccc1 [CU526, (1E,6E)-1-(4-hydroxybiphenyl-2-yl)-7-(4-hydroxyphenyl)hepta-1,6-diene-3,5-dione]"
28,172 to 178,"O=C(/C=C/c1ccc(O)cc1)CC(=O)/C=C/c1cc(OCc2ccccc2)ccc1-c1ccccc1 [CU527, (1E,6E)-1-(4-benzyloxybiphenyl-2-yl)-7-(4-hydroxyphenyl)hepta-1,6-diene-3,5-dione]"
29,95 to 101,"O=C(/C=C/c1ccc(O)cc1)CC(=O)/C=C/c1ccccc1-c1cccc2ccccc12 [CU528, (1E,6E)-1-(4-hydroxyphenyl)-7-[2-(naphthalen-1-yl)phenyl]hepta-1,6-diene-3,5-dione]"
